Source: patent US9394346B2, “Method for producing an amino acid using a bacterium overexpressing an rhtC gene” (priority 1998, dated 2016)

Columns and labels:
Type in all cases: cell-based, E. coli
N99/pRhtB = assay: MIC of amino acids and analogues on M9 agar, strain N99/pRhtB; details: Escherichia coli
Protocol: (§1) Therefore, the effect of the pRhtB and pRhtC plasmids on susceptibility of the strain N99 which is a streptomycin-resistant (Str^R) mutant of the known strain W3350 (VKPM B-1557) to some amino acids and amino acid analogues was tested. Overnight broth cultures (10^9 cfu/ml) of the strains N99/pUC21, N99pUK21, N99/pRhtB and N99/pRhtC were diluted 1:100 in M9 minimal medium and grown for 5 h in the same medium. Then the log phase cultures thus obtained were diluted and about 10^4 viable cells were applied to well-dried test plates with M9 agar (2%) containing doubling increments of amino acids or analogues. Thus the minimum inhibitory concentrations (MIC) of these compounds were examined.

N99/pRhtC = assay: MIC of amino acids and analogues on M9 agar, strain N99/pRhtC; details: Escherichia coli; N99/pRhtC (multicopy rhtC); M9 agar (2%), about 10^4 viable cells, doubling increments
Protocol: as §1

N99/pUC21 = assay: MIC of amino acids and analogues on M9 agar, strain N99/pUC21; details: Escherichia coli; N99/pUC21 (vector control; same data with N99/pUK21); M9 agar (2%), about 10^4 viable cells, doubling increments
Protocol: as §1

Row | SMILES | MIC (N99/pRhtB) [µg/mL] | MIC (N99/pRhtC) [µg/mL] | MIC (N99/pUC21) [µg/mL]
1 | CN(C)CC(N)C(=O)O (racemic) [4-aza-DL-leucine] | 100 | 50 | 50
2 | NCCSC[C@H](N)C(=O)O [AEC, S-(2-aminoethyl)-L-cysteine] | 20 | 5 | 5
3 | CCC(O)C(N)C(=O)O (stereo not drawn) [AHVA, α-amino-β-hydroxyvaleric-acid] | 2000 | 15000 | 100
4 | N[C@@H](Cc1c[nH]cn1)C(=O)O [L-histidine] | 5000 | 40000 | 5000
5 | N[C@@H](CCO)C(=O)O [L-homoserine] | 20000 | 1000 | 1000
6 | C[C@@H](O)[C@H](N)C(=O)O [L-threonine] | 40000 | 80000 | 30000
7 | CC(C)[C@H](N)C(=O)O [L-valine] | 0.5 | 2 | 0.5
8 | CO[C@H](C)[C@H](N)C(=O)O [O-methyl-L-threonine] | 20 | 20 | 20
